Measured values reported in patent US5563292A, “Lipoxygenase inhibitors” (Schering Corporation, priority 1990, dated 1996).
Read-outs that look alike come from different tables or passages of the source.

Columns and labels:
[1] = biological target: T1, 5-Lipoxygenase (5-LO) (Homo sapiens, UniProt P09917); assay: 5-Lipoxygenase Assay with Human Neutrophils (A23187-stimulated 5-HETE and LTB4 production); format: cell-based; conditions: [14C] arachidonic acid 9 μM, A23187 1 μM
T1 construct: Human polymorphonuclear leukocytes (neutrophils) were obtained from normal healthy volunteers by venipuncture; endogenous in cells; host or cells: human peripheral blood neutrophils (polymorphonuclear leukocytes) from healthy volunteers, intact cells
T1 sequence (P09917 1-674): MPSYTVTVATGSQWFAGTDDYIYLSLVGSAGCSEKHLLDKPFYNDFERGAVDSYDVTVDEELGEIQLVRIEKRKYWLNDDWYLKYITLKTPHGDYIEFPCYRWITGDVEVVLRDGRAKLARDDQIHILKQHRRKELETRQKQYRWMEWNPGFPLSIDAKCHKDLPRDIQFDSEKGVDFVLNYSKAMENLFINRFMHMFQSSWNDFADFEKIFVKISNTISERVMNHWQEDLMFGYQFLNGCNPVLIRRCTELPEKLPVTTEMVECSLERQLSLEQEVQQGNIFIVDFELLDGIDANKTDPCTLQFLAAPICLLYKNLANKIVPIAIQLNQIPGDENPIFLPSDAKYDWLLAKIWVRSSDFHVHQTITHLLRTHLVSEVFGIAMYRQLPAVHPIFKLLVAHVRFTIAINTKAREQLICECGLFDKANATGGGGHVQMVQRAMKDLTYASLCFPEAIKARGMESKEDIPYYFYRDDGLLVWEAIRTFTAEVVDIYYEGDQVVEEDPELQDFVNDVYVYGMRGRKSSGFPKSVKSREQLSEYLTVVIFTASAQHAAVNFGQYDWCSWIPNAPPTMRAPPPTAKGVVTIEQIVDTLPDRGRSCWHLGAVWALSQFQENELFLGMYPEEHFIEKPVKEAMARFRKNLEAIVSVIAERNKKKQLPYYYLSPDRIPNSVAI
Experimental: 5-Lipoxygenase Assay with Human Neutrophils
Human polymorphonuclear leukocytes (neutrophils) were obtained from normal healthy volunteers by venipuncture and collected with heparin anticoagulant. Neutrophils were isolated by Dextran/Ficol sedimentation as described (Billah et al., J. Biol. Chem. 260, 6899-6906 (1985)). In brief, 30 ml of blood was mixed with 5 ml of dextran (Sigma) solution and kept at 37 C for 30 min. The upper white cell-rich layer was removed and 10 ml was layered on 9 ml of Ficol-Pague solution (Pharmacia) and centrifuged at 280×g for 10 min. at 5° C. The supernatant was removed and the neutrophil pellet was resuspended in HEPES buffer containing 25 mM N-2-hydroxyethylpiperazine-N^1 -2-ethanesulfonic acid (HEPES), 125 mM NaCl, 2.5 mM KCl, 0.7 mM MgCl2, […] 10 mM glucose at pH 7.4. The red cells in the suspension were lysed by hypotonic shock. The neutrophils were washed by centrifugation in HEPES buffer two times and finally resuspended at a concentration of 20×10^6 cells/ml in the presence of 1 mM CaCl2.
Neutrophils (0.2 ml of suspension) were preincubated with dimethylsulfonxide (DMSO) vehicle with or without test compound (1 μl) for 4 minutes then incubated for 5 minutes with [^14 C] arachidonic acid (Amersham, 59 Ci/mole) at a 9 μM final concentration, and the calcium ionophore A23187 (Calbiochem) at a 1 μM final concentration. These stimulants were added in 10 μl of water:ethanol (9:1). The reaction was stopped by addition of methanol (0.4 ml), and cellular debris was removed by centrifugation. Aliquots (100 ul) of the incubations were run on a Waters two pump HPLC system fitted with a DuPont Zorbax ODS, 5μ, […] Reliance Cartridge column and C18 "Guard Pak". The column was initially eluted at 2 ml/min with 80% of the mixture water:methanol:acetic acid (46:54:0.08) containing 1 mM EDTA adjusted to pH 6.0 with ammonium hydroxide (Pump A) and 20% methanol (Pump B). At 10 minutes, a linear gradient to reach 100% methanol (Pump B) at 27 minutes was established. Between 27 and 28 minutes, methanol was exchanged for the initial eluting solvent and by 35 minutes the column had been reequilibrated for the next sample. The effluent was analyzed by a continuous flow radioactivity monitor (model ROMONA-D) interfaced with a Hewlett Packard Lab Automation System for quantitation of radioactive products. These were predominantly leukotriene B4 (LTB4) which eluted at 7 minutes, and 5-hydroxyeicosatetraenoic acid (5-HETE) which eluted at 20 minutes.

[2] = system: mouse ear; assay: Arachidonic Acid Mouse Ear Test; format: in vivo; conditions: topical, 30 minutes prior to arachidonic acid, biopsy 1 hour after challenge
Experimental: Charles River, female, CD, (SD) BR mice, 6 weeks old, are caged 8/group and allowed to acclimate 1-3 weeks prior to use.
Arachidonic acid (AA) is dissolved in reagent grade acetone (2 mg/0.01 ml) and stored at -20° C. for a maximum of 1 week prior to use. Inflammatory reactions are induced by applying 10 μl of AA to both surfaces of one ear ([…] total).
Test drugs are dissolved in either reagent grade acetone or aqueous ethanol (only if insoluble in acetone) at the same doses selected by Opas et al., Fed. Proc. 43, Abstract 2983, p. 1927 (1984) and Young et al., J. Invest. Dermatol. 82, pp. 367-371 (1984). These doses are employed to ensure maximum responses and to overcome any difference in topical absorption which could occur with any drug applied in an aqueous ethanol vehicle. The test drug is applied 30 minutes prior to challenge with AA.
The severity of the inflammation is measured as a function of increased ear weight. A 6 mm punch biopsy is removed 1 hour after AA challenge and weighed to the nearest 0.1 mg. Mean±standard error and all possible comparisons are made via Duncan's Multiple Range Statistic.

[3] = read-out: 5-LO inhibition, % inhibition 5-HETE
[4] = read-out: 5-LO inhibition, % inhibition LTB4

Row | inhibition at 15 µM [1, 3] [%] | inhibition at 15 µM [1, 4] [%] | inhibition at 5 µM ([1]; dose 5 μM) [%] | Compound | Mouse ear assay, % inhibition (ear weight) ([2]; dose 1.0 mg/ear) [%] | Mouse ear assay, % inhibition (ear weight) ([2]; dose 0.5 mg/ear) [%]
1 | 97 | 97 | – | COc1cc(OC)cc(C(C)(C)CC(C)(CCCC=O)c2cc(OC)cc(OC)c2)c1 (stereo not drawn) [Formula 43] | – | –
2 | 33 | 14 | – | COc1cc(OC)cc(C(C)(C)CC(C)(CCCC(=O)O)c2cc(OC)cc(OC)c2)c1 (stereo not drawn) [Formula 45] | – | –

Further lines, the molecule ahead of its results:

Row | Compound | inhibition at 15 µM [1, 3] [%] | inhibition at 15 µM [1, 4] [%] | inhibition at 5 µM ([1]; dose 5 μM) [%] | Mouse ear assay, % inhibition (ear weight) ([2]; dose 1.0 mg/ear) [%] | Mouse ear assay, % inhibition (ear weight) ([2]; dose 0.5 mg/ear) [%]
3 | COc1cc(OC)cc(C(C)(C)CC(C)(CCCCO)c2cc(OC)cc(OC)c2)c1 (stereo not drawn) [Formula 41, 5,7-dimethyl-5,7-bis(3,5-dimethoxyphenyl)-1-octanol] | 99 | 97 | – | 72 | –
4 | COc1cc(OC)cc(C(C)(C)CC(C)(CCCCOC(C)=O)c2cc(OC)cc(OC)c2)c1 (stereo not drawn) [Formula 42] | 95 | 100 | – | – | 40
5 | COC(=O)CCCC(C)(CC(C)(C)c1cc(OC)cc(OC)c1)c1cc(OC)cc(OC)c1 (stereo not drawn) [Formula 44] | 98 | 100 | – | – | –
6 | COc1cc(OC)cc(C(C)(C)CC(C)(CCCC(=O)NO)c2cc(OC)cc(OC)c2)c1 (stereo not drawn) [Formula 46] | 99 | 96 | 63 | – | –
